How the values were obtained:
Haemonchus contortus [1] = assay: Method A: screening against Haemonchus contortus, L1 larvae in microtitre plate; details: 96 h, 4 days assessment, read-out: motility inhibition; for inhibition at 0.0025 ppm: test concentration 0.0025 ppm; for inhibition at 0.01 ppm: test concentration 0.01 ppm
Source text: Method A: Screening Method to Test Activity of Compounds Against Haemonchus contortus.

[2] = test system: Microfilaria of Dirofilaria immitis; assay: Method F: microfilaria of Dirofilaria immitis in microtitre plate; details: test concentration 50 ppm, assessment at 24 hours, read-out: motility inhibition
Protocol: Method F: Screening Method to Test Activity of Compounds Against Microfilaria of Dirofilaria immitis.
Four hundred to six hundred microfilaria of Dirofilaria immitis were added to wells of a microtitre plate containing buffer and the test compound in DMSO. The microtitre plate was then held at 37° C. in an environment containing 5% CO2. An assessment was conducted at 24 hours to determine survival of the microfilaria. Microfilaria exposed to DMSO and no test compound served as controls. Compounds numbers 1.003, 1.012, 1.013, 1.064, 1.086, 1.087, 1.090, 1.094, 2.043, 2.046, 2.047, 2.048, 2.049, 3.005, 3.006, 3.009, 3.011, 3.012, 3.017, 3.019 and 3.023 gave at least 90% motility inhibition at a test concentration of 50 ppm.

Haemonchus contortus [3] = assay: Method B: Haemonchus contortus in vivo in Mongolian gerbil, oral gavage; set-up: species or system Mongolian gerbil (Meriones unguiculatus); details: 72 h, Mongolian gerbils, read-out: reduction in nematode infestation; for inhibition in vivo at 100 mg/kg: necropsy 3 days after treatment
Protocol: Method B: Screening Method to Test Activity of Compounds Against Haemonchus contortus In Vivo in Mongolian Gerbil (Meriones unguiculatus).
Mongolian gerbils, at least five weeks old, were immunosuppressed and artificially infected with ca. 1000 ensheathed Haemonchus contortus third instar larvae. Six days after infection, the Mongolian gerbils were treated by oral gavage with the test compounds, dissolved in a mixture of 2 parts DMSO and 1 part polyethylene glycol (PEG400), at doses of 100 mg/kg and dissolved in pure polyethylene glycol (PEG400) at doses of 10 and 1 mg/kg. Jirds treated only with the placebo (2 parts DMSO and 1 part PEG400 or pure PEG400) served as controls. On day 9 (3 days after treatment) the jirds were euthanized and necropsied for recovery of parasites from the stomach. Efficacy was calculated as the average % reduction in the number of worms in each test group compared with the average number of worms from the control group. […] Compound numbers 1.001, 1.008, 1.012, 1.013 and 1.014 provided at least 95% reduction in nematode infestation in Mongolian gerbils treated by oral gavage with test article at a dose of 100 mg/kg. Compound numbers 1.012, 1.033, 1.064, 2.008, 2.037, 2.038, 2.040, 2.041, 3.001 provided at least 95% reduction in nematode infestation at a dose of 10 mg/kg. Compound numbers 1.094, 2.048, 3.001, 3.007 and 3.009, provided at least 95% reduction in nematode infestation at a dose of 1 mg/kg. Compound numbers 3.005, 3.006, 3.011, 3.012, 3.017 and 3.019, provided at least 95% reduction in nematode infestation at a dose of 0.5 mg/kg.

[4] = test system: Trichostrongylus colubriformis; assay: Method D: screening against Trichostrongylus colubriformis, L1 larvae in microtitre plate; details: 96 h, 4 days assessment, read-out: motility inhibition; for inhibition at 0.0025 ppm: test concentration 0.0025 ppm; for inhibition at 0.01 ppm: test concentration 0.01 ppm
Protocol: Method D: Screening Method to Test Activity of Compounds Against Trichostrongylus colubriformis.
Twenty L1 Trichostrongylus colubriformis larvae were added to wells of a microtitre plate containing a nutrient medium and the test compound in DMSO. The microtitre plate was then held at 27° C. where the L1 larvae were allowed to develop. An analysis was conducted at 4 days to determine successful development to the L3 stage. Larvae exposed to DMSO and no test compound served as controls. Compounds numbers 1.008, 1.014, 1.042, 1.047, 1.048, 1.073, 2.001, 2.003 and 2.020, gave at least 90% motility inhibition at a test concentration of 0.15 ppm at the 4 days assessment. Compounds numbers 1.001, 1.003, 1.007, 1.011, 1.037, 1.038, 1.043, 1.056, 1.066, 1.070, 1.071, 2.012 and 2.016, gave at least 90% motility inhibition at a test concentration of 0.04 ppm at the 4 days assessment. Compounds numbers 1.012, 1.020, 1.021, 1.033, 1.034, 1.039, 1.064, 1.065, 2.008, 2.009 and 3.005 gave at least 90% motility inhibition at a test concentration of 0.01 ppm at the 4 days assessment. Compounds numbers 1.094, 2.040, 2.048, 2.049, 3.006, 3.009, 3.011 and 3.012 gave at least 90% motility inhibition at a test concentration of 0.0025 ppm at the 4 days assessment.

SMILES	inhibition at 0.0025 ppm (Haemonchus contortus [1])	inhibition at 50 ppm [2]	inhibition at 0.01 ppm [4]	inhibition at 0.01 ppm (Haemonchus contortus [1])	further results
CC(C#N)(Cn1nc2c(Cl)cc(Cl)c(F)c2n1)NC(=O)c1ccc(OC(F)(F)F)cc1 (stereo not shown) [Compound 1.090, N-[1-Cyano-2-(5,7-dichloro-4-fluoro-2H-benzotriazol-2-yl)-1-methylethyl]-4-trifluoromethoxybenzamide]	≥ 90%	≥ 90%	–	–	–
Cc1c(Br)cnc2cn(CC(C)(C#N)NC(=O)c3ccc(OC(F)(F)F)cc3)nc12 (stereo not shown) [Compound 3.009, N-[2-(6-Bromo-7-methyl-2H-pyrazolo[4,3-b]pyridin-2-yl)-1-cyano-1-methylethyl]-4-trifluoromethoxybenzamide]	≥ 90%	≥ 90%	–	–	inhibition in vivo at 1 mg/kg (Haemonchus contortus [3]): ≥ 95%; inhibition at 0.0025 ppm [4]: ≥ 90%
CC(C#N)(Cn1cc2c(Cl)cc(Cl)c(Cl)c2n1)NC(=O)c1ccc(OC(F)(F)F)cc1 (stereo not shown) [Compound 2.048, N-[1-Cyano-1-methyl-2-(4,6,7-trichloro-2H-indazol-2-yl)ethyl]-4-trifluoromethoxybenzamide]	≥ 90%	≥ 90%	–	–	inhibition in vivo at 1 mg/kg (Haemonchus contortus [3]): ≥ 95%; inhibition at 0.0025 ppm [4]: ≥ 90%
COc1c2ccc(Cl)cc2nn1CC(C)(C#N)NC(=O)c1ccc(OC(F)(F)F)cc1 (stereo not shown) [Compound 2.008, N-[2-(6-Chloro-3-methoxy-2H-indazol-2-yl)-1-cyano-1-methylethyl]-4-trifluoromethoxybenzamide]	≥ 90%	–	≥ 90%	–	inhibition in vivo at 10 mg/kg (Haemonchus contortus [3]): ≥ 95%
CC(C#N)(Cn1nc2cc(Cl)cc(Cl)c2n1)NC(=O)c1ccc(OC(F)(F)F)cc1 (stereo not shown) [Compound 1.012, N-[1-Cyano-2-(4,6-dichloro-2H-benzotriazol-2-yl)-1-methylethyl]-4-trifluoromethoxybenzamide]	–	≥ 90%	≥ 90%	≥ 90%	inhibition in vivo at 10 mg/kg (Haemonchus contortus [3]): ≥ 95%; inhibition in vivo at 100 mg/kg (Haemonchus contortus [3]): ≥ 95%
Cc1cc(Cl)cc2nn(CC(C)(C#N)NC(=O)c3ccc(OC(F)(F)F)cc3)nc12 (stereo not shown) [Compound 1.033, N-[−2-(6-Chloro-4-methyl-2H-benzotriazol-2-yl)-1-cyano-1-methylethyl]-4-trifluoromethoxybenzamide]	–	–	≥ 90%	≥ 90%	inhibition in vivo at 10 mg/kg (Haemonchus contortus [3]): ≥ 95%
CC(C#N)(Cn1cc2ncc(Cl)cc2n1)NC(=O)c1ccc(OC(F)(F)F)cc1 (stereo not shown) [Compound 3.005, N-[2-(6-Chloro-2H-pyrazolo[4,3-b]pyridin-2-yl)-1-cyano-1-methylethyl]-4-trifluoromethoxybenzamide]	–	≥ 90%	≥ 90%	≥ 90%	inhibition in vivo at 0.5 mg/kg (Haemonchus contortus [3]): ≥ 95%
CC(C#N)(Cn1nc2cc(Cl)cnc2c1Cl)NC(=O)c1ccc(OC(F)(F)F)cc1 (stereo not shown) [Compound 3.017, N-[1-Cyano-2-(3,6-dichloro-2H-pyrazolo[4,3-b]pyridin-2-yl)-1-methylethyl]-4-trifluoromethoxybenzamide]	–	≥ 90%	–	≥ 90%	inhibition in vivo at 0.5 mg/kg (Haemonchus contortus [3]): ≥ 95%
Cc1cc(Br)c(F)c2nn(CC(C)(C#N)NC(=O)c3ccc(OC(F)(F)F)cc3)nc12 (stereo not shown) [Compound 1.094, N-[2-(5-bromo-4-fluoro-7-methyl-2H-benzotriazol-2-yl)-1-cyano-1-methylethyl]-4-trifluoromethoxybenzamide]	≥ 90%	≥ 90%	–	–	inhibition in vivo at 1 mg/kg (Haemonchus contortus [3]): ≥ 95%; inhibition at 0.0025 ppm [4]: ≥ 90%
CC(C#N)(Cn1nc2c(Cl)cc(Cl)c(Cl)c2n1)NC(=O)c1ccc(OC(F)(F)F)cc1 (stereo not shown) [Compound 1.064, N-[1-Cyano-1-methyl-2-(4,5,7-trichloro-2H-benzotriazol-2-yl)-ethyl]-4-trifluoromethoxybenzamide]	≥ 90%	≥ 90%	≥ 90%	–	inhibition in vivo at 10 mg/kg (Haemonchus contortus [3]): ≥ 95%
CC(C#N)(Cn1cc2ncc(Br)cc2n1)NC(=O)c1ccc(OC(F)(F)F)cc1 (stereo not shown) [Compound 3.011, N-[2-(6-Bromo-2H-pyrazolo[4,3-b]pyridin-2-yl)-1-cyano-1-methylethyl]-4-trifluoromethoxybenzamide]	≥ 90%	≥ 90%	–	–	inhibition in vivo at 0.5 mg/kg (Haemonchus contortus [3]): ≥ 95%; inhibition at 0.0025 ppm [4]: ≥ 90%
CC(C#N)(Cn1cc2ccc(Cl)c(Br)c2n1)NC(=O)c1ccc(OC(F)(F)F)cc1 (stereo not shown) [Compound 2.043, N-[2-(7-Bromo-6-chloro-2H-indazol-2-yl)-1-cyano-1-methylethyl]-4-trifluoromethoxybenzamide]	≥ 90%	≥ 90%	–	–	–
CC(C#N)(Cn1nc2ccc(Cl)cc2n1)NC(=O)c1ccc(OC(F)(F)F)cc1 (stereo not shown) [Compound 1.001, N-[2-(5-Chloro-2H-benzotriazol-2-yl)-1-cyano-1-methylethyl]-4-trifluoromethoxybenzamide]	–	–	–	≥ 90%	inhibition in vivo at 100 mg/kg (Haemonchus contortus [3]): ≥ 95%; inhibition at 0.04 ppm ([4]; test concentration 0.04 ppm): ≥ 90%
CC(C#N)(Cn1nc2c(Cl)cc(Cl)c(Br)c2n1)NC(=O)c1ccc(OC(F)(F)F)cc1 (stereo not shown) [Compound 1.086, N-[2-(4-Bromo-5,7-dichloro-2H-benzotriazol-2-yl)-1-cyano-1-methylethyl]-4-trifluoromethoxybenzamide]	≥ 90%	≥ 90%	–	–	–
CC(C#N)(Cn1nc2c(Br)c(Cl)cc(Cl)c2c1Br)NC(=O)c1ccc(OC(F)(F)F)cc1 (stereo not shown) [Compound 2.046, N-[1-Cyano-2-(3,7-dibromo-4,6-dichloro-2H-indazol-2-yl)-1-methylethyl]-4-trifluoromethoxybenzamide]	≥ 90%	≥ 90%	–	–	–
CC(C#N)(Cn1nc2cc(Cl)cnc2c1Br)NC(=O)c1ccc(OC(F)(F)F)cc1 (stereo not shown) [Compound 3.019, N-[2-(3-Bromo-6-chloro-2H-pyrazolo[4,3-b]pyridin-2-yl)-1-cyano-1-methylethyl]-4-trifluoromethoxybenzamide]	–	≥ 90%	–	–	inhibition at 0.04 ppm (Haemonchus contortus [1]; test concentration 0.04 ppm): ≥ 90%; inhibition in vivo at 0.5 mg/kg (Haemonchus contortus [3]): ≥ 95%

Source: patent publication US8088801B2, “Aryloazol-2-yl cyanoethylamino compounds, method of making and method of using thereof” (Merial Limited, priority 2007, dated 2012)
